Assay [1] has as its target T1, human recombinant ETA receptor (Homo sapiens, UniProt P25101).
T1 construct: expressed in transfected cells; host or cells: CHO cells (microsomal membranes)
T1 sequence (P25101 21-427): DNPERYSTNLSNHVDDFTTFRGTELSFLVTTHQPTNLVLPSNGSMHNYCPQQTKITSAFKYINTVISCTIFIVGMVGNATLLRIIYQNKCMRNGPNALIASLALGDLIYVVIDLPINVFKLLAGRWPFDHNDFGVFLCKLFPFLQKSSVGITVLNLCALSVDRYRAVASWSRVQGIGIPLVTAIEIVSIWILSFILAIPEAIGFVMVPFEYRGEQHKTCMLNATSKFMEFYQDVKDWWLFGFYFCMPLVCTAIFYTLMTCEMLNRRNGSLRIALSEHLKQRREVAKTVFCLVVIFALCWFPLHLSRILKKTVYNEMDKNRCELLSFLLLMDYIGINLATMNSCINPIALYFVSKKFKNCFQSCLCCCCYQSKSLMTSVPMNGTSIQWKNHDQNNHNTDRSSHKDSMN
Description: Inhibition of [125I]ET-1 binding to membranes from CHO cells carrying human ETA receptors.

Assay [2] addresses T2, human recombinant ETB receptor (Homo sapiens, UniProt P24530).
T2 construct: expressed in transfected cells; host or cells: CHO cells (microsomal membranes)
T2 sequence (P24530 27-442): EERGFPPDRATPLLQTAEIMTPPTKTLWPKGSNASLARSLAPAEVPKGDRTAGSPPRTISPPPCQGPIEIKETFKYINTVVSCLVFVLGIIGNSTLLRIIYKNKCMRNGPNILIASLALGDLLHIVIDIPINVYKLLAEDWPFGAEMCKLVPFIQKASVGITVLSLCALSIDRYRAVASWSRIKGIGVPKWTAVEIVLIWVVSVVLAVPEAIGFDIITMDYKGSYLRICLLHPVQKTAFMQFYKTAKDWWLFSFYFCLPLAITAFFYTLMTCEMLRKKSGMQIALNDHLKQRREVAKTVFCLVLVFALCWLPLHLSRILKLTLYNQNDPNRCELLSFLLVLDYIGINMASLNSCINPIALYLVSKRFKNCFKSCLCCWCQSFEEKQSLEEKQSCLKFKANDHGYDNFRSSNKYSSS
Description: Inhibition of [125I]ET-1 binding to membranes from CHO cells carrying human ETB receptors.

`COc1ccc(Cl)c(Oc2c(NS(=O)(=O)NCc3ccc4c(c3)OCO4)ncnc2OCCOc2ncc(Br)cn2)c1` [Example 151]: the IC50 came to 0.77 nM in assay [1] and 57 nM in assay [2].
The matching figures for `COc1cnc(OCCOc2ncnc(NS(=O)(=O)NCc3ccc4c(c3)OCO4)c2Oc2cc(OC)ccc2Cl)nc1` [Example 152]: 1.1 nM and 79 nM.
For the compound `COc1ccccc1Oc1c(NS(=O)(=O)NCc2ccccn2)nc(-c2ncccn2)nc1OCCOc1ncc(SC)cn1` [Example 155], the IC50 in assay [1] was determined as 5.8 nM; in assay [2], 173 nM.
Turning to `COc1ccccc1Oc1c(NS(=O)(=O)NCc2ccccn2)nc(-c2ncccn2)nc1OCCOc1ncc(Br)cn1` [Example 156], the values for the IC50 in assay [1] and in assay [2] were 18 nM and 409 nM, respectively.
For `COc1ccccc1Oc1c(NS(=O)(=O)NCc2ccccn2)nc(-c2ncccn2)nc1OCCOc1nccs1` [Example 157], the IC50 was 42.2 nM in assay [1] and 954 nM in assay [2].
On to `COc1ccccc1Oc1c(NS(=O)(=O)NCc2ccccn2)nc(-c2ccncc2)nc1OCCOc1ncc(SC)cn1` [Example 158], for which the values for the IC50 in assay [1] and in assay [2] were 10 nM and 80 nM, respectively.
As for `C#CCOc1nc(-c2ccncc2)nc(NS(=O)(=O)NCc2ccc(OC)cc2)c1Oc1ccccc1OC` [Example 160], the IC50 in assay [1] is 11 nM; in assay [2], 3220 nM.
As for `COc1ccc(CNS(=O)(=O)Nc2ncnc(OCCOc3ncc(Br)cn3)c2Oc2cc(OC)ccc2Cl)cc1` [Example 163], the IC50 in assay [1] was 0.44 nM; in assay [2], 80 nM.
As for `COc1ccc(CNS(=O)(=O)Nc2ncnc(OCCOc3ncc(OC)cn3)c2Oc2cc(OC)ccc2Cl)cc1` [Example 164], the figures for the IC50 in assay [1] and in assay [2] were 1 nM and 81 nM, respectively.
For the compound `COc1ccc(CNS(=O)(=O)Nc2nc(-c3ncccn3)nc(OCCOc3ncc(Br)cn3)c2Oc2ccccc2OC)cc1OC` [Example 166], the IC50 is 1 nM in assay [1] and 3 nM in assay [2].
For `COc1ccc(CNS(=O)(=O)Nc2nc(-c3ncccn3)nc(OCCOc3ncccn3)c2Oc2ccccc2OC)cc1OC` [Example 167], the results for the IC50 in assay [1] and in assay [2] were 5.2 nM and 6.4 nM, respectively.
`COc1ccc(CNS(=O)(=O)Nc2nc(-c3ncccn3)nc(OCCOC(=O)Nc3ccccc3)c2Oc2ccccc2OC)cc1OC` [Example 168]: the IC50 is 2.7 nM in assay [1] and 1.6 nM in assay [2].
For `COc1cccc(CNS(=O)(=O)Nc2nc(-c3ncccn3)nc(OCCOc3ncc(Br)cn3)c2Oc2ccccc2OC)c1` [Example 170], the results for the IC50 in assay [1] and in assay [2] were 1.7 nM and 42 nM, respectively.
On to `COc1cccc(CNS(=O)(=O)Nc2nc(-c3ncccn3)nc(OCCOc3ncccn3)c2Oc2ccccc2OC)c1` [Example 171], for which the IC50 in assay [1] stood at 11 nM; in assay [2], 61 nM.
Consider `COc1cccc(CNS(=O)(=O)Nc2nc(-c3ncccn3)nc(OCCOC(=O)Nc3ccccc3)c2Oc2ccccc2OC)c1` [Example 172], for which the IC50 in assay [1] was 3 nM; in assay [2], 16 nM.
Regarding `COc1ccccc1CNS(=O)(=O)Nc1nc(-c2ncccn2)nc(OCCOc2ncc(Br)cn2)c1Oc1ccccc1OC` [Example 174], the IC50 in assay [1] worked out at 3.7 nM; in assay [2], 93 nM.
Take `COc1ccccc1CNS(=O)(=O)Nc1nc(-c2ncccn2)nc(OCCOc2ncccn2)c1Oc1ccccc1OC` [Example 175]: the IC50 in assay [1] amounted to 22 nM; in assay [2], 62 nM.
The matching figures for `COc1ccccc1CNS(=O)(=O)Nc1nc(-c2ncccn2)nc(OCCOC(=O)Nc2ccccc2)c1Oc1ccccc1OC` [Example 176]: 2.5 nM and 22 nM.
Regarding `COc1ccccc1Oc1c(NS(=O)(=O)NCCc2ccccc2)nc(-c2ccncc2)nc1OCCOC(=O)Nc1ccccc1` [Example 181], the IC50 in assay [1] was 14.3 nM; in assay [2] it was 224 nM.
On to `COc1ccccc1Oc1c(NS(=O)(=O)NCCc2ccccc2)nc(-c2ccncc2)nc1OCCOc1ncc(Br)cn1` [Example 182], for which the results for the IC50 in assay [1] and in assay [2] were 29 nM and 1870 nM, respectively.

Broadly, the IC50 is the concentration needed to halve the response being measured.

Source of the values: US7094781B2, “Sulfamides and their use as endothelin receptor antagonists” (Actelion Pharmaceuticals Ltd., priority 2000, dated 2006).
